Laboratory results as given in US20220326218A1, “COMPOSITION AND METHOD FOR INHIBITING BORC COMPLEX TO TREAT CANCERS WITH NF1 DEFICIENCY AND DYSREGULATED RAS SIGNALING” (THE TRUSTEES OF DARTMOUTH COLLEGE, priority 2019, published 2022).
Structures can show the parent of a compound that is named as a salt.

Tests used:
Format in all cases: cell-based, human
BNIP3L/Nix = assay: Immunofluorescence staining for mitophagy receptor BNIP3L/Nix; conditions: U87-MG, 24 h; 2 μM Y102, 100 μM CoCl2; CoCl2 and Y102 compared with each other
Protocol: (§1) U87-MG cells were plated at a concentration of 50,000 cells/well onto precoated poly-D-lysine (PDL) coverslips (Neuvitro) in 24-well plates (Falcon) and allowed to adhere overnight. Medium was removed and replaced with treatment-laced media normalized to DMSO, and cells were treated for the indicated timepoints. At the time of collection, cells were washed with PBS and fixed with 4% paraformaldehyde without methanol (EMS) or 100% methanol (Fischer). Coverslips were washed with Tween20-containing PBS (PBST; Fischer). Following permeabilization with 0.5% Triton X-100 in PBS (Fischer), coverslips were blocked for 1 h at room temperature in IF Buffer (0.05% azide, 0.2% Triton X-100, 2% Normal Goat Serum or, for 8-OHG, Normal Donkey Serum). The following primary antibodies were used for 1 hour at room temperature unless specified: AlexaFluor 488 pre-conjugated anti-γ-H2AX (N1-431) mouse monoclonal (30 minutes; BD Biosciences), anti-cleaved caspase 3 (Asp175) rabbit polyclonal (Cell Signaling), anti-SQSTM1/p62 (D-3) mouse monoclonal (Santa Cruz), anti-8-Hydroxyguanosine goat polyclonal (1:200; Millipore), anti-LAMP1 (D4O1S) mouse monoclonal (O/N at 4° C.; Cell Signaling), anti-BNIP3L/Nix (D4R4B) rabbit monoclonal (O/N at 4° C.; Cell Signaling), anti-FLAG (M2) mouse monoclonal (2 hours at 37° C.; Sigma-Aldrich). […]

sequestosome-1 (p62) = assay: Immunofluorescence staining for p62; conditions: U87-MG, 24 h; 2 μM Y102, 50 μM HCQ; HCQ and Y102 compared with each other
Protocol: as §1

p62 = assay: Western immunoblotting of autophagy marker p62; conditions: U87-MG, 12 h treatment +/- 12 h HCQ
Protocol: (§2) U87-MG cells were plated at 500,000 cells/well in 6-well plates and allowed to adhere overnight (Falcon). Medium was removed and replaced with fresh medium containing drugs or compounds for the indicated timepoints. Cells were collected after treatment by washing with PBS, harvested with trypsin plus agitation to detach cells, pelleted in a centrifuge and resuspended in PBS to wash. Cells were transferred to 1.5 mL microcentrifuge tubes, pelleted, and resuspended in RIPA lysis buffer (50 mM Tris pH 8.0, 150 mM NaCl, 1% nonidet P40, 0.5% sodium deoxycholate, and 0.05% SDS) containing 1 mM NaVO4, 1 mM NaF, 1 mM phenylmethylsulfonyl fluoride, 0.1 μg/mL antipain, 1 μM aprotinin, 100 μM benzamidine HCl, 0.1 μg/mL leupeptin, 0.1 μg/mL pepstatin, and 0.1 μg/mL soybean trypsin inhibitor. Protein was quantified using a BCA assay kit (Pierce). 50 μg of protein was prepared in 1× Laemmli sample buffer (50 mM Tris pH 6.8, 0.02% w/v bromophenol blue, 2% w/v SDS, 10% v/v glycerol, 1% v/v beta-mercaptoethanol, 12.5 mM EDTA) and separated by SDS-PAGE on a 4-15% polyacrylamide gradient gel (Bio-Rad). […]

LC3-II = assay: Western immunoblotting of autophagy marker LC3-I/II; conditions: U87-MG, 12 h treatment +/- 12 h HCQ co-treatment, total 24 h
Protocol: as §2

mitochondria = assay: MitoTracker Red CMXRos staining of the mitochondrial network; conditions: U87-MG, 24 h; 2 μM Y102, 50 μM HCQ
Protocol: For MitoTracker Red CMXRos staining, 30 minutes prior to collection medium was removed and replaced with medium containing MitoTracker Red CMXRos at a final concentration of 100 nM (Molecular Probes). Following staining, cells were washed with PBS and fixed with 4% paraformaldehyde without methanol. Cells were washed with PBST, then permeabilized with 0.5% Triton X-100 in PBS. When co-staining with another marker, the staining procedure continued with the blocking step; otherwise, cells were stained with 0.33 μg/mL DAPI in PBS and mounted onto slides in ProLong Gold (Life Technologies).

Row | SMILES | expression/localization of BNIP3L/Nix on the mitochondria compared to DMSO control (BNIP3L/Nix) | p62 expression compared to DMSO (immunofluorescence) (sequestosome-1 (p62)) | p62 expression (western immunoblotting) (p62) | LC3-II accumulation (western immunoblotting) (LC3-II) | mitochondrial phenotype (perinuclear clustering) (mitochondria)
1 | [Cl-].[Cl-].[Co+2] [CoCl2, Cobalt (II) Chloride, reference compound] | similar |  |  |  | 
2 | CCN(CCO)CCCC(C)Nc1ccnc2cc(Cl)ccc12 (centres unmarked) [HCQ, Hydroxychloroquine Sulfate, reference compound] |  | similar | increased | resulted in LC3-II accumulation | not observed
